Molecules are shown by their SMILES. Activity calls are given as the source filed them. The calls are words filed in the database; no cut-off is given here.

Data set [1] concerns Rattus norvegicus. The experiment in a line: Neurotoxicity in Sprague-Dawley rat assessed as behavioral change at 30 mg/kg, po measured at […] post dose. The format is toxicity, organism-based. The note with it: in vivo.
For data set [2], the system named is Mus musculus. As to the kind of experiment: Anticonvulsant activity in maximal electroshock induced seizure mouse model assessed as suppression in hindlimb tonic extension at 300 mg/kg, ip measured at 0.5 hrs post dose. The class given is functional, organism-based. (In general: In the maximal electroshock model the usual endpoint is tonic extension of the hind limbs.)

Data set [3] deals with Mus musculus. The experiment in a line: Neurotoxicity in mouse assessed as induction of motor impairment at 30 mg/kg, ip measured at 4 hrs post dose by rotarod method. The format is toxicity, organism-based. The note with it: in vivo. (In general: The rotarod test checks motor coordination on a turning rod.)
The subject of data set [4] is Rattus norvegicus. The experiment in a line: Neurotoxicity in Sprague-Dawley rat assessed as behavioral change at 30 mg/kg, po measured at 0.5 hrs post dose. The format is toxicity, organism-based. The conditions noted are these: in vivo.
Data set [5] concerns Rattus norvegicus. The experiment in a line: Neurotoxicity in Sprague-Dawley rat assessed as behavioral change at 30 mg/kg, po measured at 2 hrs post dose. The note with it: in vivo. The class given is toxicity, organism-based.
The test system of data set [6] is Mus musculus. As to the kind of experiment: Anticonvulsant activity in ip dosed pentylenetetrazole induced seizure mouse model assessed as no observable episode of clonic convulsion of at least 5 secs by measuring time to peak effect. The class given is functional.
Data set [7] relates to Mus musculus. As to the kind of experiment: Neurotoxicity in ip dosed mouse assessed as induction of motor impairment by measuring time to peak effect by rotarod method. The note with it: in vivo. The class given is toxicity, organism-based.
For data set [8], the system named is Mus musculus. As to the kind of experiment: Anticonvulsant activity in ip dosed pentylenetetrazole induced seizure mouse model assessed as no observable episode of clonic convulsion of at least 5 secs. The format is functional.
Data set [9] is described as follows: Protection index, ratio of TD50 for neurotoxicity in ip dosed mouse to ED50 for ip dosed pentylenetetrazole induced seizure mouse model. The conditions noted are these: in vivo, read-out: Ratio TD50/ED50. The format is toxicity, organism-based.
Data set [10] has as its system Rattus norvegicus. The experiment in a line: Anticonvulsant activity in ip dosed maximal electroshock induced seizure Sprague-Dawley rat model assessed as suppression in hindlimb tonic extension. The class given is functional.
For data set [11], the target named is T1, Adenosine receptor A3 (Homo sapiens) (UniProt P0DMS8).
T1 sequence (whole entry): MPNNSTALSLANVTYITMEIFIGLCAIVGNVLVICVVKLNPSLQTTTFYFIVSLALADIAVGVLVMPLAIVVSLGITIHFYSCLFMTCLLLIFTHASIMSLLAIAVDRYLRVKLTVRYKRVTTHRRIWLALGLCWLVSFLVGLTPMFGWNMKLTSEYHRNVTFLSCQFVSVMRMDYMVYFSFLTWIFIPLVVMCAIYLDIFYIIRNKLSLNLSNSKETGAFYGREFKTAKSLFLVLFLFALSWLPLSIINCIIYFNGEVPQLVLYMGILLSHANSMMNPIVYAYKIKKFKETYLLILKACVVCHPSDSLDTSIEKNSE
As to the kind of experiment: Displacement of [125I]AB-MECA from human recombinant adenosine receptor A3 expressed in HEK293 cells at 100 uM measured after 120 mins by scintillation counting method relative to control. The class given is cell-based.

Data set [12] has as its target Adrenergic receptor alpha-1 (Rattus norvegicus) (UniProt P15823+P23944+P43140). The experiment in a line: Displacement of [3H]prazosin from rat cerebral cortex alpha-1 adrenergic receptor at 100 uM measured after 60 mins by scintillation counting method relative to control.
Data set [13] has as its target Adrenergic receptor alpha-2 (Rattus norvegicus) (UniProt P22086+P19328+P22909). The experiment in a line: Displacement of [3H]RX 821002 from rat cerebral cortex alpha-2 adrenergic receptor at 100 uM measured after 60 mins by scintillation counting method relative to control. On the technique in general: Displacement assays read how much labelled ligand stays bound in the presence of the test substance.

The target of data set [14] is D(1A) dopamine receptor (Homo sapiens) (UniProt P21728). The experiment in a line: Displacement of [3H]SCH 23390 from human recombinant dopamine D1 receptor expressed in CHO cells at 100 uM measured after 60 mins by scintillation counting method relative to control. The class given is cell-based.
In another data set the test system is CHO. As to the kind of experiment: Displacement of [3H]methyl-spiperone from human recombinant dopamine D4.4 receptor expressed in CHO cells at 100 uM measured after 60 mins by scintillation counting method relative to control. The class given is cell-based.
Data set [15] concerns the target T2, Galanin receptor type 1 (Homo sapiens) (UniProt P47211).
T2 sequence (whole entry): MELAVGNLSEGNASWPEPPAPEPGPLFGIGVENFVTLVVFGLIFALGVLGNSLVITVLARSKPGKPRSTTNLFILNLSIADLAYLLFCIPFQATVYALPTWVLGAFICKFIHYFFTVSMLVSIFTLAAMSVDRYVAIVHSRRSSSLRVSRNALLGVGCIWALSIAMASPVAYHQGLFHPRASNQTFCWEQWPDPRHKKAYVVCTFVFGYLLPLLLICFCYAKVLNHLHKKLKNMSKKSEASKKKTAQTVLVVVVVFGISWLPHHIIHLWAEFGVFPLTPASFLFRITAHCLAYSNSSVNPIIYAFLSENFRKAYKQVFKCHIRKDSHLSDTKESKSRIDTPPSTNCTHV
The experiment in a line: Displacement of [125I]galanin from human recombinant GAL1 receptor expressed in HEK293 cells at 100 uM measured after 60 mins by scintillation counting method relative to control. The class given is cell-based.

The target in data set [16] is Substance-P receptor (Homo sapiens) (UniProt P25103). As to the kind of experiment: Displacement of [125I]BH-SP from NK1 receptor in human U373MG cells at 100 uM measured after 30 mins by scintillation counting method relative to control. The format is cell-based. The note with it: U-373MG ATCC.
Data set [17] has as its target T3, Neuromedin-K receptor (Homo sapiens) (UniProt P29371).
T3 sequence (whole entry): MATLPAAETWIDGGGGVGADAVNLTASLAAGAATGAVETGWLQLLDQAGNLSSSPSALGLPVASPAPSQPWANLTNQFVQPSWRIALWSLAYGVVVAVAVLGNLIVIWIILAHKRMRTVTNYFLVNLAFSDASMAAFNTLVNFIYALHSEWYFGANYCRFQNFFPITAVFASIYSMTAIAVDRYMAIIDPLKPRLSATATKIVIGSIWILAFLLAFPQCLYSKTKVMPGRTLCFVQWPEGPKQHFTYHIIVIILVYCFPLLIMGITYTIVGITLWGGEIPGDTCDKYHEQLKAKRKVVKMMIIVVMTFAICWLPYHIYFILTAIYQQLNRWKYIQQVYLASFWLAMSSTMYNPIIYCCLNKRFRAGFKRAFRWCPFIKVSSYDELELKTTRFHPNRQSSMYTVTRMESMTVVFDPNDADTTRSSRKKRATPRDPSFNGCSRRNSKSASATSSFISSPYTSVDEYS
The experiment in a line: Displacement of [3H]SR 142801 from human recombinant NK3 receptor expressed in CHO cells at 100 uM measured after 120 mins by scintillation counting method relative to control. The class given is cell-based.

The target of data set [18] is Prostacyclin receptor (Homo sapiens) (UniProt P43119). The experiment in a line: Displacement of [3H]iloprost from human recombinant IP receptor expressed in HEK293 cells at 100 uM measured after 60 mins by scintillation counting method relative to control. The class given is cell-based.
For data set [19], the target named is 5-hydroxytryptamine receptor 2A (Homo sapiens) (UniProt P28223). As to the kind of experiment: Displacement of [3H]ketanserin from human recombinant 5HT2A receptor expressed in HEK293 cells at 100 uM measured after 60 mins by scintillation counting method relative to control. The class given is cell-based.
The target in data set [20] is 5-hydroxytryptamine receptor 7 (Homo sapiens) (UniProt P34969). As to the kind of experiment: Displacement of [3H]LSD from human recombinant 5HT7 receptor expressed in CHO cells at 100 uM measured after 120 mins by scintillation counting method relative to control. The format is cell-based.
Data set [21] is filed under the species Rattus norvegicus. As to the kind of experiment: Displacement of [3H]batrachotoxinin from rat cerebral cortex sodium channel site 2 at 100 uM measured after 60 mins by scintillation counting method relative to control.

Sequence of 5-hydroxytryptamine receptor 2A (Homo sapiens) (P28223 whole entry): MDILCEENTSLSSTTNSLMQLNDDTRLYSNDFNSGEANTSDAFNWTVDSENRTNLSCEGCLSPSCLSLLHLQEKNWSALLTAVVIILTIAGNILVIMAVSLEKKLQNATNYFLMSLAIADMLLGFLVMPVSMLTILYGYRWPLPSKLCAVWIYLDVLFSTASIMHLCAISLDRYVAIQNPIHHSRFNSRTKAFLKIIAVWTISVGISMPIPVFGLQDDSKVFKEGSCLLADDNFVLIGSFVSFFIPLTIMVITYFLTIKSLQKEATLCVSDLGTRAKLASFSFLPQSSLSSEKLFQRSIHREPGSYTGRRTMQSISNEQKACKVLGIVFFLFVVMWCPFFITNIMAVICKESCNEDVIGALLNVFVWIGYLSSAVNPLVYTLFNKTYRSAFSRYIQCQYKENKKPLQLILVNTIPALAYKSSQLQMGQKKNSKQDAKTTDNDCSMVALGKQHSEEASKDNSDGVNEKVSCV
Sequence of Substance-P receptor (Homo sapiens) (P25103 whole entry): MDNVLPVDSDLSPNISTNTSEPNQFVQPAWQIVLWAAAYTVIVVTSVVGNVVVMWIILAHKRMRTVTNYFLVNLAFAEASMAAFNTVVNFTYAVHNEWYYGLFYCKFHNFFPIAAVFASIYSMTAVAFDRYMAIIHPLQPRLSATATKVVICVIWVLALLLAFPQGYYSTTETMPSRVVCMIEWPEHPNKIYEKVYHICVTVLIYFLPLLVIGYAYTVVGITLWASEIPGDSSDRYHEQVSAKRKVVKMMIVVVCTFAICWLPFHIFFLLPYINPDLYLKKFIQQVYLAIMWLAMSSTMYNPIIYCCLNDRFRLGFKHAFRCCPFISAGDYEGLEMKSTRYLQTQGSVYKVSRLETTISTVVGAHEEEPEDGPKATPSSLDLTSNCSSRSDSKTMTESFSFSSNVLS
Sequence of 5-hydroxytryptamine receptor 7 (Homo sapiens) (P34969 whole entry): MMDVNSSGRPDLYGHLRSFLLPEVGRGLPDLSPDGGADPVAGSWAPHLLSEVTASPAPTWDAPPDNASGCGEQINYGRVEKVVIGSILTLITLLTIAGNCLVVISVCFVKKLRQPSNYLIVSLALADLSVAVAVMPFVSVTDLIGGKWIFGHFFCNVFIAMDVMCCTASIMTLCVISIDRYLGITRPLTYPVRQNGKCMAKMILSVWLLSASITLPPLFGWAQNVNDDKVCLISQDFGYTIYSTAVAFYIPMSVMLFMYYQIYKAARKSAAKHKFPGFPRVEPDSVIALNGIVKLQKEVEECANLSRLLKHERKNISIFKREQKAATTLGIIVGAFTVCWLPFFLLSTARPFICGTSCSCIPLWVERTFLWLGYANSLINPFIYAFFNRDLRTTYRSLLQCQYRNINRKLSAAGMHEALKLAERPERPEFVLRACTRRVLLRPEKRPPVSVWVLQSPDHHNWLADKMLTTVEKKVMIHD
Sequence of D(1A) dopamine receptor (Homo sapiens) (P21728 whole entry): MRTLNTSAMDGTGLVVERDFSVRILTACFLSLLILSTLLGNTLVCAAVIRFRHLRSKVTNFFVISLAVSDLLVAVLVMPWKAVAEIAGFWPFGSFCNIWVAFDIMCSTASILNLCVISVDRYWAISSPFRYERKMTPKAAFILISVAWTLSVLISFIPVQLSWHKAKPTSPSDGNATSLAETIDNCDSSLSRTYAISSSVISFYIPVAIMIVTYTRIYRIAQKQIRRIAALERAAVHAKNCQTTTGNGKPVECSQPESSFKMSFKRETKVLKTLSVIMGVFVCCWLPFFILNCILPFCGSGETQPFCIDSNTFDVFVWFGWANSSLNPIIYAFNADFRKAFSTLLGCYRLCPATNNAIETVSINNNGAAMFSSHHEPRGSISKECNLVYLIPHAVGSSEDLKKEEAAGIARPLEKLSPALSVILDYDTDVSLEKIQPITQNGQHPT
Sequence of Prostacyclin receptor (Homo sapiens) (P43119 whole entry): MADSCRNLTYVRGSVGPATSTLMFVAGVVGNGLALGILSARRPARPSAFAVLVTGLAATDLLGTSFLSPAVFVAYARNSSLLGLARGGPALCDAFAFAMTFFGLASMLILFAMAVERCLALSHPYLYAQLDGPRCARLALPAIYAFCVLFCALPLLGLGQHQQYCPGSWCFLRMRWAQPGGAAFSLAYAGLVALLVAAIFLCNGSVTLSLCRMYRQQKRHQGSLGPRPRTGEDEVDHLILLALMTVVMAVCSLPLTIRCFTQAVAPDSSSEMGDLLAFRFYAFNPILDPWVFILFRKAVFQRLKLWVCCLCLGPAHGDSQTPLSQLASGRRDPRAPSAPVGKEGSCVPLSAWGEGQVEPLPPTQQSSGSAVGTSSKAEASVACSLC

Consider `Cc1ccccc1/C=C/C(=O)N[C@@H](C)CO`, for which the Activity result with Rattus norvegicus [1], with Mus musculus [3], in the data set with Rattus norvegicus [4] and in the data set with Rattus norvegicus [5] was “Non-Toxic” throughout. Besides, the result in the data set with Mus musculus [2] was Active. The Time was determined as 0.25 h with Mus musculus [6] and 0.5 h with Mus musculus [7]. For the same molecule, the ED50 (as a rule, the midpoint of the dose-response relation) with Mus musculus [8] is 58.4 mg/kg; in the data set with Rattus norvegicus [10], 16.3 mg/kg. Further, in data set [9], the selectivity ratio was 2.57. Further, the inhibition (as a rule, the change of the read-out against control, counted positive when it falls) is 17.1% in data set [11]; 11.5% in data set [12]; 10.8% in data set [13]; 7.2% in [14]; 23.2% in the data set on CHO; 1.4% in [15]. Besides, the inhibition in data set [16] is -5.7%; in data set [17] it was -0.4%; in data set [18], -5%; in [19], 10.3%; in data set [20] it was 26.6%; in the data set listed under Rattus norvegicus [21], -2.3%.

As to `CC(O)CNC(=O)/C=C/c1ccc(Cl)cc1` (stereo unspecified), the Activity entry in the data set with Rattus norvegicus [1], in the data set on Mus musculus [3], with Rattus norvegicus [4] and in the data set on Rattus norvegicus [5] was “Non-Toxic” each time. The result in the data set with Mus musculus [2] was Active. In addition, the Time with Mus musculus [6] is 0.5 h; in the data set with Mus musculus [7], 0.25 h. Moreover, the ED50 in the data set on Mus musculus [8] came to 102 mg/kg; with Rattus norvegicus [10] it was 41.9 mg/kg. The selectivity ratio in [9] was found to be 1.76. The inhibition in data set [11] stood at 29.9%; in data set [12], 17.3%; in [13], 25.1%; in [14] it was 14.9%; in the data set with CHO, 28.2%; in data set [15], 6.6%. Moreover, the inhibition in [16] was found to be 3.1%; in data set [17] it was 5.2%; in data set [18] it was 1%; in data set [19], 12.2%; in [20], 43.5%; in the data set filed under Rattus norvegicus [21] it was 10.2%.

Regarding `CCC(CO)NC(=O)/C=C/c1ccc(Cl)cc1` (stereo unspecified), the Activity result in the data set on Rattus norvegicus [1], in the data set with Mus musculus [3], in the data set on Rattus norvegicus [4] and with Rattus norvegicus [5] was “Non-Toxic” in each case. The result in the data set with Mus musculus [2] was Active. The Time in the data set on Mus musculus [6] and with Mus musculus [7] was 0.25 h in each case. For the same molecule, the ED50 worked out at 90.3 mg/kg in the data set on Mus musculus [8] and 21.2 mg/kg in the data set with Rattus norvegicus [10]. Besides, the selectivity ratio in data set [9] came to 2.18. Besides, the inhibition in data set [11] was 52.5%; in data set [12] it was 9.9%; in data set [13] it was 34.8%; in [14] it was 18.5%; with CHO, 30.6%; in data set [15] it was -1.2%. Moreover, the inhibition turned out to be 3% in data set [16]; 5.8% in data set [17]; 2.3% in data set [18]; 19.3% in data set [19]; 16.2% in data set [20]; 28.4% in the data set filed under Rattus norvegicus [21].

The values above are taken from ChEMBL document CHEMBL3875185, “Structure-anticonvulsant activity studies in the group of (E)-N-cinnamoyl aminoalkanols derivatives monosubstituted in phenyl ring with 4-Cl, 4-CH3 or 2-CH3” (Bioorg Med Chem, 2017).
